Source: ChEMBL document CHEMBL2150993, “Substituted thiazoles VII. Synthesis and antitumor activity of certain 2-(substituted amino)-4-phenyl-1,3-thiazole analogs” (2012)
Calls of active or inactive are those of the source. No cut-off for these calls is given here.

Experiments:
Assay type in all cases: functional
CCRF-CEM = assay: Growth inhibition of human CCRF-CEM cells after 48 hrs by cell counting analysis; settings: at 10 µM
HL-60 = assay: Growth inhibition of human HL60 cells after 48 hrs by cell counting analysis; settings: at 10 µM
K562 = assay: Growth inhibition of human K562 cells after 48 hrs by cell counting analysis; settings: at 10 µM
RPMI-8226 = assay: Growth inhibition of human RPMI8226 cells after 48 hrs by cell counting analysis; settings: at 10 µM
SR = assay: Growth inhibition of human SR cells after 48 hrs by cell counting analysis; settings: at 10 µM
A549 = assay: Growth inhibition of human A549 cells after 48 hrs by cell counting analysis; settings: at 10 µM
EKVX = assay: Growth inhibition of human EKVX cells after 48 hrs by cell counting analysis; settings: at 10 µM
HOP-62 = assay: Growth inhibition of human HOP62 cells after 48 hrs by cell counting analysis; settings: at 10 µM
HOP-92 = assay: Growth inhibition of human HOP92 cells after 48 hrs by cell counting analysis
NCI-H226 = assay: Growth inhibition of human NCI-H226 cells after 48 hrs by cell counting analysis; settings: at 10 µM
NCI-H23 = assay: Growth inhibition of human NCI-H23 cells after 48 hrs by cell counting analysis; settings: at 10 µM
[1] = Growth inhibition of human NCI-322M cells after 48 hrs by cell counting analysis; settings: at 10 µM
NCI-H522 = assay: Growth inhibition of human NCI-H522 cells after 48 hrs by cell counting analysis; settings: at 10 µM
HCC 2998 = assay: Growth inhibition of human HCC2998 cells after 48 hrs by cell counting analysis; settings: at 10 µM
HCT-15 = assay: Growth inhibition of human HCT15 cells after 48 hrs by cell counting analysis; settings: at 10 µM
HT-29 = assay: Growth inhibition of human HT-29 cells after 48 hrs by cell counting analysis; settings: at 10 µM
KM12 = assay: Growth inhibition of human KM12 cells after 48 hrs by cell counting analysis; settings: at 10 µM
SW-620 = assay: Growth inhibition of human SW620 cells after 48 hrs by cell counting analysis; settings: at 10 µM
SF-268 = assay: Growth inhibition of human SF268 cells after 48 hrs by cell counting analysis; settings: at 10 µM
SF-295 = assay: Growth inhibition of human SF295 cells after 48 hrs by cell counting analysis; settings: at 10 µM
SF-539 = assay: Growth inhibition of human SF539 cells after 48 hrs by cell counting analysis; settings: at 10 µM
SNB-19 = assay: Growth inhibition of human SNB19 cells after 48 hrs by cell counting analysis; settings: at 10 µM
SNB-75 = assay: Growth inhibition of human SNB75 cells after 48 hrs by cell counting analysis; settings: at 10 µM
U-251 = assay: Growth inhibition of human U251 cells after 48 hrs by cell counting analysis; settings: at 10 µM
LOX IMVI = assay: Growth inhibition of human LOXIMVI cells after 48 hrs by cell counting analysis; settings: at 10 µM
Malme-3M = assay: Growth inhibition of human MALME-3M cells after 48 hrs by cell counting analysis; settings: at 10 µM
M14 = assay: Growth inhibition of human M14 cells after 48 hrs by cell counting analysis; settings: at 10 µM
MDA-MB-435 = assay: Growth inhibition of human MDA-MB-435 cells after 48 hrs by cell counting analysis; settings: at 10 µM
SK-MEL-2 = assay: Growth inhibition of human SK-MEL-2 cells after 48 hrs by cell counting analysis; settings: at 10 µM
SK-MEL-28 = assay: Growth inhibition of human SK-MEL-28 cells after 48 hrs by cell counting analysis; settings: at 10 µM
SK-MEL-5 = assay: Growth inhibition of human SK-MEL-5 cells after 48 hrs by cell counting analysis; settings: at 10 µM
UACC-257 = assay: Growth inhibition of human UACC257 cells after 48 hrs by cell counting analysis; settings: at 10 µM
UACC-62 = assay: Growth inhibition of human UACC62 cells after 48 hrs by cell counting analysis; settings: at 10 µM
IGROV-1 = assay: Growth inhibition of human IGROV1 cells after 48 hrs by cell counting analysis; settings: at 10 µM
OVCAR-3 = assay: Growth inhibition of human OVCAR3 cells after 48 hrs by cell counting analysis; settings: at 10 µM
OVCAR-4 = assay: Growth inhibition of human OVCAR4 cells after 48 hrs by cell counting analysis; settings: at 10 µM
OVCAR-5 = assay: Growth inhibition of human OVCAR5 cells after 48 hrs by cell counting analysis; settings: at 10 µM
OVCAR-8 = assay: Growth inhibition of human OVCAR8 cells after 48 hrs by cell counting analysis; settings: at 10 µM
[2] = Growth inhibition of human NCI-ADR-RES cells after 48 hrs by cell counting analysis; settings: at 10 µM
SK-OV-3 = assay: Growth inhibition of human SKOV3 cells after 48 hrs by cell counting analysis; settings: at 10 µM
ACHN = assay: Growth inhibition of human ACHN cells after 48 hrs by cell counting analysis; settings: at 10 µM
CAKI-1 = assay: Growth inhibition of human Caki1 cells after 48 hrs by cell counting analysis; settings: at 10 µM
RXF 393 = assay: Growth inhibition of human RXF393 cells after 48 hrs by cell counting analysis
SN12C = assay: Growth inhibition of human SN12C cells after 48 hrs by cell counting analysis; settings: at 10 µM
TK-10 = assay: Growth inhibition of human TK10 cells after 48 hrs by cell counting analysis; settings: at 10 µM
UO-31 = assay: Growth inhibition of human UO31 cells after 48 hrs by cell counting analysis; settings: at 10 µM
PC-3 = assay: Growth inhibition of human PC3 cells after 48 hrs by cell counting analysis; settings: at 10 µM
MCF7 = assay: Growth inhibition of human MCF7 cells after 48 hrs by cell counting analysis; settings: at 10 µM
MDA-MB-231 = assay: Growth inhibition of human MDA-MB-231 cells after 48 hrs by cell counting analysis; settings: at 10 µM
BT-549 = assay: Growth inhibition of human BT549 cells after 48 hrs by cell counting analysis; settings: at 10 µM
T47D = assay: Growth inhibition of human T47D cells after 48 hrs by cell counting analysis; settings: at 10 µM
MDA-MB-468 = assay: Growth inhibition of human MDA-MB-468 cells after 48 hrs by cell counting analysis
[3] = Antiproliferative activity against human leukemia cells after 48 hrs by cell counting analysis
[4] = Antiproliferative activity against human non-small cell lung cancer cells after 48 hrs by cell counting analysis; settings: Cancer cell lines
[5] = Antiproliferative activity against human colon cancer cells after 48 hrs by cell counting analysis; settings: Cancer cell lines
[6] = Antiproliferative activity against human CNS cancer cells after 48 hrs by cell counting analysis; settings: Cancer cell lines
[7] = Antiproliferative activity against human melanoma cells after 48 hrs by cell counting analysis
[8] = Antiproliferative activity against human ovarian cancer cells after 48 hrs by cell counting analysis; settings: Cancer cell lines
[9] = Antiproliferative activity against human renal cancer cells after 48 hrs by cell counting analysis; settings: Cancer cell lines
[10] = Antiproliferative activity against human prostate cancer cells after 48 hrs by cell counting analysis; settings: Cancer cell lines
[11] = Antiproliferative activity against human breast cancer cells after 48 hrs by cell counting analysis; settings: Cancer cell lines
MOLT-4 = assay: Growth inhibition of human MOLT4 cells after 48 hrs by cell counting analysis; settings: at 10 µM
HCT-116 = assay: Growth inhibition of human HCT116 cells after 48 hrs by cell counting analysis; settings: at 10 µM
[12] = read-out: LC50 (the source's name)

In the case of O=C(CCCl)Nc1nc(-c2ccc(Cl)cc2)cs1, the “growth inhibition (GI)” value (CCRF-CEM) is reported as 88.3%, the “growth inhibition (GI)” value (HL-60) is reported as 28.5% and the “growth inhibition (GI)” value (K562) is reported as 63%. For the same molecule, the “growth inhibition (GI)” value (RPMI-8226) was 92.8%, the “growth inhibition (GI)” value (SR) was 77.7% and the “growth inhibition (GI)” value (A549) was 39.9%. For the same molecule, the “growth inhibition (GI)” value (EKVX) was 29.6%, the “growth inhibition (GI)” value (HOP-62) was 49% and the “growth inhibition (GI)” value (HOP-92) was “Active”. For the same molecule, the “growth inhibition (GI)” value (NCI-H226) was 51%, the “growth inhibition (GI)” value (NCI-H23) was 29% and the “growth inhibition (GI)” value [1] was 16.9%. The “growth inhibition (GI)” value (NCI-H522) was 95.6%, the “growth inhibition (GI)” value (HCC 2998) was 15.8% and the “growth inhibition (GI)” value (HCT-15) was 61.4%. For the same molecule, the “growth inhibition (GI)” value (HT-29) was 78%, the “growth inhibition (GI)” value (KM12) was 43.8% and the “growth inhibition (GI)” value (SW-620) was 76%. For the same molecule, the “growth inhibition (GI)” value (SF-268) was 51.7%, the “growth inhibition (GI)” value (SF-295) was 29.8% and the “growth inhibition (GI)” value (SF-539) was 94.6%. For the same molecule, the “growth inhibition (GI)” value (SNB-19) was 26.2%, the “growth inhibition (GI)” value (SNB-75) was 58.8% and the “growth inhibition (GI)” value (U-251) was 55.4%. For the same molecule, the “growth inhibition (GI)” value (LOX IMVI) was 43.1%, the “growth inhibition (GI)” value (Malme-3M) was 44% and the “growth inhibition (GI)” value (M14) was 44.7%. For the same molecule, the “growth inhibition (GI)” value (MDA-MB-435) was 68.1%, the “growth inhibition (GI)” value (SK-MEL-2) was 72.7% and the “growth inhibition (GI)” value (SK-MEL-28) was 21.2%. For the same molecule, the “growth inhibition (GI)” value (SK-MEL-5) was 46.8%, the “growth inhibition (GI)” value (UACC-257) was 43% and the “growth inhibition (GI)” value (UACC-62) was 38.7%. For the same molecule, the “growth inhibition (GI)” value (IGROV-1) was 48.9%, the “growth inhibition (GI)” value (OVCAR-3) was 89.8% and the “growth inhibition (GI)” value (OVCAR-4) was 16.4%. For the same molecule, the “growth inhibition (GI)” value (OVCAR-5) was 35.7%, the “growth inhibition (GI)” value (OVCAR-8) was 52.8% and the “growth inhibition (GI)” value [2] was 51.2%. For the same molecule, the “growth inhibition (GI)” value (SK-OV-3) was 25.7%, the “growth inhibition (GI)” value (ACHN) was 39.2% and the “growth inhibition (GI)” value (CAKI-1) was 52.5%. The “growth inhibition (GI)” value (RXF 393) was “Active”, the “growth inhibition (GI)” value (SN12C) was 48.3% and the “growth inhibition (GI)” value (TK-10) was <10%. The “growth inhibition (GI)” value (UO-31) was 70.1%, the “growth inhibition (GI)” value (PC-3) was 59.7% and the “growth inhibition (GI)” value (MCF7) was 55.8%. For the same molecule, the “growth inhibition (GI)” value (MDA-MB-231) was 44.6%, the “growth inhibition (GI)” value (BT-549) was 89.9% and the “growth inhibition (GI)” value (T47D) was 52.1%. The “growth inhibition (GI)” value (MDA-MB-468) was “Active”, the GI50 [3] was 2.2 µM and the TGI [3] was 8.9 µM. The CC50 [3, 12] was 90.2 µM, the GI50 [4] was 6.1 µM and the TGI [4] was 19 µM. It also gave a CC50 [4, 12] of 51.5 µM, a GI50 [5] of 3.9 µM and a TGI [5] of 13.5 µM. For the same molecule, the CC50 [5, 12] was 44 µM, the GI50 [6] was 3.1 µM and the TGI [6] was 14.7 µM. It also gave a CC50 [6, 12] of 50.9 µM, a GI50 [7] of 3.2 µM and a TGI [7] of 13.1 µM. It also gave a CC50 [7, 12] of 47.6 µM, a GI50 [8] of 4.1 µM and a TGI [8] of 21.8 µM. It also gave a CC50 [8, 12] of 67 µM, a GI50 [9] of 1.7 µM and a TGI [9] of 7.9 µM. For the same molecule, the CC50 [9, 12] was 32.1 µM, the GI50 [10] was 2.8 µM and the TGI [10] was 13.8 µM. It also gave a CC50 [10, 12] of 42.2 µM, a GI50 [11] of 2.4 µM and a TGI [11] of 8.8 µM. For the same molecule, the CC50 [11, 12] was 55.9 µM, the “growth inhibition (GI)” value (MOLT-4) was 61.3% and the “growth inhibition (GI)” value (HCT-116) was 79.3%.
